The experiment concerns full thickness human skin homogenate. Kind of experiment: In vitro NO generation by NO specific Clarke-type electrode, UVA-irradiated skin homogenate. The following applies: UVA radiation, nitrite source. It counts as biochemical. The text has this:
Electrochemical sensors are widely used for the measurement of NO generation and Clark-type electrodes are most widely used as they are commercially available and easy to handle. The principle of these sensors is that NO diffuses through a gas-permeable membrane and a thin film of electrolyte, followed by oxidation on the working electrode. This oxidation creates a current that is proportional to the concentration of NO outside the membrane. The advantage of electrochemical NO sensors is the ability to directly detect NO concentration in solution or in biological samples with a low nanomolar detection limit. This makes NO electrodes an excellent tool for studying NO generation especially in biological samples.
We used the Clarke electrode technique to investigate the mechanism of UVA light dependent NO generation in skin and cosmetically acceptable components which could facilitate augment the endogenous process.
A 10% (g/mL) full thickness human skin homogenate in phosphate buffer was prepared using a glass/glass homogenizer. The homogenate was preheated at 56° C. for 1 hour to inactivate enzymatic generation of NO.
200 ul of homogenate was placed in a quartz cuvette in a thermostatically controlled environment and irradiated with broadband (320-400 nm) UVA radiation. Baseline signals were recorded. […]

Regarding `O=C(O)CCCCC1CCSS1` (centres unmarked) [Lipoic acid (Oxidised), Lipoic acid], the “sustained UV induced NO generation from nitrite” value is reported as “able to participate in sustained NO generation”.

Turning to `N[C@@H](CSSC[C@H](N)C(=O)O)C(=O)O` [Cystine], the “sustained UV induced NO generation from nitrite” value is “able to participate in sustained NO generation”.
